This is an account of results in publication PMC2678990, “Stilbene glycosides are natural product inhibitors of FGF-2-induced angiogenesis” (BMC Cell Biology, 2009).

The test system of assay [1] is BAEC. Put plainly: FGF-2-induced tube formation in Matrigel. It is filed as cell-based, bovine. The settings on record: Matrigel; for IC50: 24 h, FGF-2 25 ng/ml. The protocol: Cells (1.0 × 10^6/ml) were mixed with an equal volume of Matrigel (Becton -Dickinson, Oxford, UK; prepared according to the supplier's instructions) at 4°C. Aliquots (80 μl) were added to the wells of a 48-well plate and allowed to polymerise (1 h) then 500 μl of 15% FCS containing FGF-2 (25 ng/ml; or other growth factors), with or without test compounds was added. The cells were incubated for 24 h at 37°C then fixed in 4% paraformaldehyde (5 min), washed in cold ethanol and the plate air dried. Cells were stained with Geimsa (30 s), air dried and photographed. Ten random fields were selected and the number of closed tubes counted.

The test system of assay [2] is phospho-ERK1/2 in BAEC. The experiment in a line: Western blot of ERK1/2 phosphorylation. The settings on record: BAEC; FGF-2 25 ng/ml; Western blot. It is filed as cell-based, bovine. The protocol:
Figure 9 (A) Western blots of p-ERK-1 and -2 were performed on BAEC treated with compound 1 as described below. (B) The bar charts show relative protein expression compared to the control given an arbitrary value of 1.0. All experiments were performed at least twice and a representative example is shown. Lane 1 control, lane 2 FGF-2 (25 ng/ml), lane 3 compound 1 ([…]), lane 4 compound 1 (14.3 μM) + FGF-2, lane 5 compound 1 (28.6 μM), lane 6 compound 1 (28.6 μM) + FGF-2.
The method is described in detail elsewhere. In brief, cells were lysed in RIPA buffer, protein concentration determined using the Biorad assay, and approximately 20 μg aliquots separated by 12% SDS-PAGE, electroblotted onto nitrocellulose filters (Hoefer, San Francisco, Ca, USA), blocked overnight with 1% BSA in TBS-Tween and incubated for 4 h at RT with characterised antibodies to phosphor-ERK1/2 (AutogenBioclear, mouse monoclonal, 1:1000). α-Actin (Sigma, UK; 1:1000) was used as a loading control. Filters were washed in TBS-Tween and stained with antibodies to peroxidase-conjugated secondary antibody. Proteins were detected with the ECL system (Amersham, UK). Protein expression was estimated spectrophotometrically from band intensity. Results are semi-quantitative and given a numerical value compared to the weakest observed band assigned an arbitrary value of 1.0. […]
On the technique in general: In western blotting, separated proteins are transferred to a membrane and probed.

Broadly, the IC50 is the concentration that gives 50% inhibition. High values mean a need for much substance, low ones inhibition by little substance.

Turning to `COc1cc(C=Cc2ccc(O)cc2)cc(OC2OC(COC3OC(C)C(O)C(O)C3O)C(O)C(O)C2OC2OC(C)C(O)C(O)C2O)c1` (stereo not shown) [Compound 1], the results for the IC50 in assay [1] (Bos taurus) and in assay [1] were 11.1 ± 0.28 µM and 18.2 ± 0.65 µM, respectively. Further, the “Effect on tube formation in the absence of FGF-2” value in assay [1] (without FGF-2) was “no inhibitory effect”. Further, the “Inhibition of FGF-2-induced ERK1/2 phosphorylation” value in assay [2] was “inhibited”.
